Consider 19 compounds from US3968214A, “5-Methylthio-pyrimidine vasodilators” (Produits Chimiques Ugine Kuhlmann, priority 1973, dated 1976).

Data set [1] is described as follows: Acute toxicity in mice, intravenous and oral (LD50). It counts as in vivo. Conditions: mouse, in vivo. The text has this: The acute toxicities of the compounds according to the invention have been determined CD 1 mice (Charles RIVER) by intravenous and oral methods. The LD50 calculated by the quantal cumulative method of J. J. Reed and H. Muench (Amer. J. Hyg. 1938, 27, 493) are collected in the following Table: […]

For data set [2], the system named is isolated duodenum of rabbit, contractions caused by acetylcholine. Description: Spasmolytic activity, neurotrope versus acetylcholine, isolated duodenum (Magnus). From the text:
(§1) The spasmolytic activities are known by means of the technique of R. Magnus (Arch. Ges. Physiol., 1904, 102, 123) on the isolated duodenum of rabbits. The spasmolytic neurotropes inhibit the contractions of the organ caused by acetylcholine, while the musculotropes prevent the spasms induced by barium chloride. The EC 50 expressed in mg/litre are collected in the following Table where EC denotes "Effective concentration".

The subject of data set [3] is isolated duodenum of rabbit, spasms induced by barium chloride. Put plainly: Spasmolytic activity, musculotrope versus BaCl2, isolated duodenum (Magnus).
Text: as §1

The subject of a further data set is isolated rabbit heart. Description: Coronaro-dilatatory activity, isolated heart (Langendorff modified by Anderson). Conditions: for coronaro-dilatatory activity (in words): isolated rabbit heart. From the text: The technique of Langendorff, modified by F. E. Anderson, (J. Pharmacol. exp. Therap., 1948, 91, 135) using isolated rabbit heart permits the coronaro-dilatatory activity of the products to be studied. In this text, the cardiac perfusion liquid contains 0.5 UI/1 of posthypophysis. The results are expressed in the percentage variation of the coronary flow after affusion of the product to be tested, compared with the initial flow.

In data set [4] the test system is abdominal spasms caused in mice by 2-phenyl-1,4-benzoquinone. Put plainly: Analgesic activity: abdominal spasms caused by intraperitoneal 2-phenyl-1,4-benzoquinone (P.B.Q.). It counts as in vivo. As to conditions: Mus musculus; mice, oral; read-out: Analgesic activity P.B.Q. AD 50. From the text: The analgesic activities have been investigated with respect to abdominal spasms caused in mice by the intraperitoneal injection of 2-phenyl-1,4-benzoquinone according to E. Siegmund, E. Cadmus and G. Lu, Proc. Soc. exp. Biol. Med., 1957, 95, 729-731. The central antiserotonin properties have been determined by the "Head-twitch" technique in mice according to S. J. Corne, R. W. Pickering and B. T. Warner, Brit. J. Pharmacol., 1963, 20, 106-120. In this test, the antiserotonin products inhibit the sudden shaking of the head induced in mice by 5-hydroxy-tryptophan, the biological precursor of serotonin.

Setting [5] is: oral, read-out: Acute toxicity to mice LD 50, orally.
Where [6] appears, read: intravenous, read-out: Acute toxicity to mice LD 50, intravenous.

Where two headings read alike, the source gives them in different places. Where only a bound is given, the exact number is not on record here.

Take `CCN(CC)CCNc1nc(N(C)c2ccc(C)cc2)nc(Cl)c1SC` [Example 19, 2-N-methyl-N(4-methyl-phenyl)amino-4-(2'-diethylamino)-ethylamino-5-methyl-thio-6-chloro-pyrimidine]: the LD50 in data set [1] (setting [5]) is ~675 mg/kg.

Consider `COc1ccc(N(C)c2nc(Cl)c(SC)c(NCCN(C(C)C)C(C)C)n2)cc1OC` [Example 21, 2-N-methyl-N(3,4-dimethoxy-phenyl)amino-4-(2'-diisopropylamino)-ethylamino-5-methylthio-6-chloro-pyrimidine], for which, in data set [1] (setting [5]), the LD50 was ~600 mg/kg.

With `CCN(CC)CCNc1nc(N(C)c2ccc(OC)c(OC)c2)nc(Cl)c1SC` [Example 20, 2-N-methyl-N(3,4-dimethoxy-phenyl)amino-4-(2'-diethylamino)-ethylamino-5-methylthio-6-chloro-pyrimidine], the LD50 in data set [1] (setting [5]) was determined as 400 mg/kg.

Regarding `CCOC(=O)CN(C)c1nc(Cl)c(SC)c(NCCN(C)C)n1` [Example 10, 2-N-methyl-N-(ethoxycarbonylmethyl)-amino-4-(2'-dimethylamino)-ethylamino-5-methylthio-6-chloro-pyrimidine], the LD50 in data set [1] (setting [6]) worked out at 79 mg/kg. Also, the LD50 in data set [1] (setting [5]) was found to be 900 mg/kg. In data set [2], the “Spasmolytic activity EC 50, neurotrope versus acetylcholine” value amounted to 0.50 µg/mL and the “neurotropic spasmolytic activity (in words)” value is “necessary to call attention”. Moreover, the “Spasmolytic activity EC 50, musculotrope versus BaCl2” value in data set [3] turned out to be 0.50 µg/mL.

Consider `CCN(CC)CCNc1nc(N(C)C)nc(Cl)c1SC` [Example 1, 2-dimethylamino-4-(2'-diethylamine)ethylamino-5-methylthio-6-chloropyrimidine], for which the values for the LD50 in data set [1] (setting [6]) and in data set [1] (setting [5]) were 53 mg/kg and 200 mg/kg, respectively. Further, the “Spasmolytic activity EC 50, neurotrope versus acetylcholine” value in data set [2] was 5.50 µg/mL. Further, the “Spasmolytic activity EC 50, musculotrope versus BaCl2” value in data set [3] was 1.40 µg/mL.

Take `CSc1c(Cl)nc(N(C)Cc2ccccc2)nc1NCCN(C(C)C)C(C)C` [Example 11, 2-N-methyl-N-benzylamino-4-(2'-di-isopropyl-amino)-ethylamino-5-methylthio-6-chloro-pyrimidine]: the LD50 in data set [1] (setting [6]) came out at 60 mg/kg; in data set [1] (setting [5]), 675 mg/kg. Moreover, the “Spasmolytic activity EC 50, neurotrope versus acetylcholine” value in data set [2] was 3.50 µg/mL. Besides, the “Spasmolytic activity EC 50, musculotrope versus BaCl2” value in data set [3] was 0.02 µg/mL. For the same compound, the “musculotropic EC 50” value in data set [3] was “less than 0.1 mg/liter”. In addition, in data set [3], the “musculotropic spasmolytic activity (in words)” value is given as “quite remarkable activities”. The “Increase of the coronary flow” value with isolated rabbit heart (dose 0.001 mg) was 168%; in the data set on isolated rabbit heart (dose 0.003 mg) it was 172%. Besides, the “coronaro-dilatatory activity (in words)” value in the data set with isolated rabbit heart is listed as “interesting coronaro-dilatatory activities”.

Consider `CSc1c(NCCN(C)C)nc(N(C)C)nc1OCc1cccnc1` [Example 23, 2-N-dimethyl-amino-4-(2'-dimethylamino)-ethylamino-5-methyl-thio-6-(3-pyridyl)-methoxy-pyrimidine], for which the figures for the LD50 in data set [1] (setting [6]) and in data set [1] (setting [5]) were 22 mg/kg and 175 mg/kg, respectively. The “Spasmolytic activity EC 50, neurotrope versus acetylcholine” value in data set [2] was 8.60 µg/mL. Also, the “Spasmolytic activity EC 50, musculotrope versus BaCl2” value in data set [3] is 1.00 µg/mL.

As for `CCCCOc1nc(N(C)Cc2ccccc2)nc(NCCN(C(C)C)C(C)C)c1SC` [Example 31, 2-N-methyl-2-N-benzylamino-4-(2'-di-isopropyl-amino)-ethylamino-5-methylthio-6-butoxy-pyrimidine], in data set [1] (setting [5]), the LD50 was ~675 mg/kg.

Consider `CSc1c(Cl)nc(N(C)C)nc1NCCN(C)C` [Example 8, 2-dimethylamino-4-(2'-dimethylamino)-ethylamino-5-methylthio-6-chloro-pyrimidine], for which the LD50 was 57 mg/kg in data set [1] (setting [6]) and 525 mg/kg in data set [1] (setting [5]). Moreover, the “Spasmolytic activity EC 50, neurotrope versus acetylcholine” value in data set [2] was determined as 4.90 µg/mL. Besides, the “Spasmolytic activity EC 50, musculotrope versus BaCl2” value in data set [3] was determined as 2.80 µg/mL.

For the compound `CSc1c(Cl)nc(N(C)c2ccc(C)cc2)nc1NCCN(C(C)C)C(C)C` [Example 14, 2-N-methyl-N(4-methyl-phenyl)amino-4-(2'-diisopropylamino)-ethylamino-5-methylthio-6-chloro-pyrimidine], the LD50 in data set [1] (setting [6]) was determined as 92 mg/kg. In data set [1] (setting [5]), the LD50 amounted to 900 mg/kg. Also, in data set [2], the “Spasmolytic activity EC 50, neurotrope versus acetylcholine” value was determined as 0.08 µg/mL and the “neurotropic spasmolytic activity (in words)” value is “necessary to call attention”. Also, in data set [3], the “Spasmolytic activity EC 50, musculotrope versus BaCl2” value was 0.04 µg/mL; the “musculotropic EC 50” value is reported as “less than 0.1 mg/liter”; the “musculotropic spasmolytic activity (in words)” value is given as “quite remarkable activities”. In the data set on isolated rabbit heart (dose 0.003 mg), the “Increase of the coronary flow” value came to 104%. Moreover, the “Increase of the coronary flow” value with isolated rabbit heart (dose 0.01 mg) is listed as 140%. The “Increase of the coronary flow” value in the data set with isolated rabbit heart (dose 0.03 mg) amounted to 168%. Moreover, in the data set with isolated rabbit heart, the “coronaro-dilatatory activity (in words)” value is “interesting coronaro-dilatatory activities”.

As for `CSc1c(Cl)nc(N(C)c2ccc(Cl)cc2)nc1NCCN1CC(C)OC(C)C1` (centres unmarked) [Example 22, 2-N-methyl-N-(4-chloro-phenyl)amino-4-(2'-2,6-dimethyl-morpholino)-ethylamino-5-methylthio-6-chloro-pyrimidine], the LD50 in data set [1] (setting [5]) is > 900 mg/kg.

For `CCCCOc1nc(N(C)c2ccccc2)nc(NCCN(C(C)C)C(C)C)c1SC` [Example 32, 2-N-methyl-N-phenylamino-4-(2'-diiso-propyl-amino)-ethylamino-5-methyl-thio-6-butoxy-pyrimidine], the LD50 in data set [1] (setting [5]) is ~525 mg/kg.

As to `CCN(CC)CCNc1nc(N(C)c2ccc(Cl)cc2)nc(OC)c1SC` [Example 25, 2-N-methyl-N(4-chloro-phenyl)amino-4-(2'-diethylamino)-ethylamino-5-methylthio-6-methoxy-pyrimidine], the LD50 in data set [1] (setting [5]) is ~600 mg/kg.

For `COc1nc(N2CCCCC2)nc(NCCN(C(C)C)C(C)C)c1SC` [Example 29, 2-piperidino-4-(2'-diisopropyl-amino)-ethylamino-5-methylthio-6-methoxy-pyrimidine], the LD50 in data set [1] (setting [5]) is ~200 mg/kg.

Consider `CSc1c(Cl)nc(N2CCOCC2)nc1NCCN(C)C` [Example 9, 2-morpholino-4-(2'-dimethylamino)-ethyl-amino-5-methylthio-6-chloro-pyrimidine], for which the LD50 in data set [1] (setting [5]) is 400 mg/kg. For the same compound, in data set [2], the “Spasmolytic activity EC 50, neurotrope versus acetylcholine” value came out at 3.00 µg/mL. In addition, the “Spasmolytic activity EC 50, musculotrope versus BaCl2” value in data set [3] is 1.90 µg/mL.

Take `COc1nc(N(C)c2ccccc2)nc(NCCN(C)C)c1SC` [Example 26, 2-N-methyl-N-phenyl-amino-4-(2'-dimethylamino)-ethylamino-5-methylthio-6-methoxy-pyrimidine]: the LD50 in data set [1] (setting [6]) stood at 70 mg/kg; in data set [1] (setting [5]), 225 mg/kg. Moreover, the ED50 in data set [4] turned out to be 65 mg/kg.

Turning to `CCOC(=O)CN(C)c1nc(Cl)c(SC)c(NCCN(C(C)C)C(C)C)n1` [Example 15, 2-N-methyl-N-(ethoxycarbonylmethyl)-amino-4-(2'-diisopropylamino)-ethylamino-5-methyl-thio-6-chloro-pyrimidine], the LD50 in data set [1] (setting [6]) is 63 mg/kg; in data set [1] (setting [5]), > 900 mg/kg. Moreover, the “Spasmolytic activity EC 50, musculotrope versus BaCl2” value in data set [3] turned out to be 0.05 µg/mL. Also, in data set [3], the “musculotropic EC 50” value is “less than 0.1 mg/liter”. The “musculotropic spasmolytic activity (in words)” value in data set [3] is on record as “quite remarkable activities”. Moreover, the “Increase of the coronary flow” value came out at 16% in the data set with isolated rabbit heart (dose 0.003 mg), 24% with isolated rabbit heart (dose 0.01 mg), 44% in the data set with isolated rabbit heart (dose 0.03 mg) and 28% in the data set on isolated rabbit heart (dose 0.10 mg). Moreover, the “coronaro-dilatatory activity (in words)” value in the data set on isolated rabbit heart is “interesting coronaro-dilatatory activities”.

With `COc1ccc(N(C)c2nc(NCCN(C(C)C)C(C)C)c(SC)c(OC)n2)cc1OC` [Example 28, 2-N-methyl-N-(3,4-dimethoxy-phenyl)-amino-4-(2'-diisopropyl-amino)-ethyl-amino-5-methylthio-6-methoxy-pyrimidine], the LD50 in data set [1] (setting [5]) was ~200 mg/kg.

In the case of `CCN(CC)CCNc1nc(N(C)Cc2ccccc2)nc(Cl)c1SC` [Example 4, 2-N-methyl-N-benzylamino-4-(2'-diethylamino)-ethylamino-5-methylthio-6-chloro-pyrimidine], the LD50 came to 45 mg/kg in data set [1] (setting [6]) and 525 mg/kg in data set [1] (setting [5]). In data set [2], the “Spasmolytic activity EC 50, neurotrope versus acetylcholine” value amounted to 0.30 µg/mL. Also, the “neurotropic spasmolytic activity (in words)” value in data set [2] is listed as “necessary to call attention”. In addition, the “Spasmolytic activity EC 50, musculotrope versus BaCl2” value in data set [3] came to 0.06 µg/mL. Further, in data set [3], the “musculotropic EC 50” value is listed as “less than 0.1 mg/liter”. Further, the “musculotropic spasmolytic activity (in words)” value in data set [3] is recorded as “quite remarkable activities”. Further, the “Increase of the coronary flow” value in the data set with isolated rabbit heart (dose 0.003 mg) came to 8%; in the data set with isolated rabbit heart (dose 0.01 mg), 28%; in the data set on isolated rabbit heart (dose 0.03 mg), 41%; in the data set with isolated rabbit heart (dose 0.10 mg), 135%. In addition, the “coronaro-dilatatory activity (in words)” value in the data set on isolated rabbit heart is “interesting coronaro-dilatatory activities”.
